# Results as given in patent US11660311B2, “Cyclic dinucleotides as anticancer agents” (priority 2017, dated 2023).
# Read-outs that look alike come from different tables or passages of the source.
# How the values were obtained:
# [1] = system: NF-κB pathway in THP1-Dual STING reporter cells; assay: STING THP1 Reporter Assay, NF-κB pathway (SEAP); format: cell-based, human; settings: Homo sapiens, THP1-Dual, 20 h, 100% = 100 μM cGAMP
# Source text: (§1) THP1-Dual™ cells were derived from the human THP-1 monocyte cell line by stable integration of two inducible reporter constructs. To this end, THP1-Dual™ cells allow the simultaneous study of the NF-κB pathway, by monitoring the activity of SEAP, and the IRF pathway by assessing the activity of a secreted luciferase (Lucia). Both reporter proteins are readily measurable in the cell culture supernatant when using QUANTI-Blue™, a SEAP detection reagent, and QUANTI-Luc™, a luciferase detection reagent.
# (§2) THP1-Dual™ cells induce the activation of NF-κB in response to STING agonists. They also trigger the IRF pathway upon stimulation with STING agonists, such as cGAMP. Here, the THP-1-Dual cells were used to assess STING binders for function on the cellular level.
# (§3) Serial dilutions of compounds in DMSO were added to low volume 384 well plates at 100 nl/well using an ECHO acoustic dispenser (Labcyte, model 550) to achieve final starting concentration of 100 μM in cell suspension. […] One column of the plate was reserved for treatment with cGAMP at 100 μM for 100% activation calculation and one column for no treatment (DMSO only) for baseline activation. Plates were then incubated in 37° C. incubator at 5% CO2 for 20 hours.
# (§4) In the SEAP assay, 5 μl of 2× QuantiBlue (Invivogen, cat #Rep-qb2) is added to 384 well black plates seeded with THP1 cells and incubated at 37° C. for 2 hours. Plates were read on the Envision (Perkin Elmer) at 620 nm wavelength (OD620). In the luciferase assay, 5 μl of Quantiluc (Invivogen, Rep-qlc2) is added to white 384 well plates seeded with THP1 cells and read at 5 minutes on the Envision (Perkin Elmer) using a luminescence protocol (RLU). For both cell lines, 100% activation was determined by value (RLU) of THP-1 Dual STING cells stimulated with 100 μM cGAMP (Invivogen, cat #TLRL-NACGA23-5).
# [2] = target: T1, STING WT: His-TVMV-S-hSTING(155-341)-H232R (Homo sapiens, UniProt Q86WV6, H232R); assay: STING HTRF Binding Assay, STING WT; settings: 20 nM His-tagged STING cytoplasmic domain, 200 nM fluorescein-labeled cGAMP analog probe, one hour; read-out: HTRF Binding Assays IC50 (μM) STING WT
# T1 construct: STING WT: His-TVMV-S-hSTING(155-341)-H232R
# Method: (§5) A time resolved FRET-based competition binding assay was used to assess test article binding to STING WT and STING AQ. His-tagged STING cytoplasmic domain (WT or AQ) at a concentration of 20 nM was incubated with 2.5 nM Tb-labeled anti-His antibody, test compound, and fluorescein-labeled cGAMP analog probe (BioLog cat. no. C195) at a concentration of 200 nM (STING WT) or 40 nM (STING AQ) in PBS containing 0.005% Tween-20 and 0.1% BSA for one hour. Fluorescence at 495 nm and 520 nm was measured using an EnVision microplate reader to quantify FRET between Tb-labeled anti-His antibody and fluorescein-labeled probe. Background was defined as the signal obtained in the absence of STING protein, and background subtracted FRET ratios were normalized to the maximum signal obtained in the absence of test compound. These values were converted to a percent inhibition. Percent inhibition was determined for test compounds at 11 concentrations. The IC50, defined as the concentration of competing test compound needed to reduce specific binding of the probe by 50%, was calculated using the 4 parameter logistic equation to fit the data
# [3] = target: T2, STING AQ: His-TVMV-S-hSTING(155-341)-G230A-R293Q (Homo sapiens, UniProt Q86WV6, G230A/H232R/R293Q); assay: STING HTRF Binding Assay, STING AQ; settings: 20 nM His-tagged STING cytoplasmic domain, 40 nM fluorescein-labeled cGAMP analog probe, one hour; read-out: HTRF Binding Assays IC50 (μM) STING AQ
# T2 construct: STING AQ: His-TVMV-S-hSTING(155-341)-G230A-R293Q
# Method: as §5
# [4] = system: IRF pathway in THP1-Dual STING reporter cells; assay: STING THP1 Reporter Assay, IRF pathway (secreted Lucia luciferase); format: cell-based, human; settings: Homo sapiens, THP1-Dual, 20 h, THP1-Dual cells, 10% human plasma, 20 hours, luciferase; 100% = 100 μM cGAMP; read-out: THP1 Reporter Assays EC50 (μM) IRF3
# Source text: as §1, §2, §3, §4
# [5] = THP1-Dual cells, 10% human plasma, 20 hours, SEAP, read-out: THP1 Reporter Assays EC50 (μM) NFkB
# [6] = read-out: THP1 Reporter Assays EC50 (μM) NFkB, THP1-Dual cells, 10% human plasma, 20 hours, SEAP
# T1 sequence (Q86WV6 with tags, fused parts or gaps H232R): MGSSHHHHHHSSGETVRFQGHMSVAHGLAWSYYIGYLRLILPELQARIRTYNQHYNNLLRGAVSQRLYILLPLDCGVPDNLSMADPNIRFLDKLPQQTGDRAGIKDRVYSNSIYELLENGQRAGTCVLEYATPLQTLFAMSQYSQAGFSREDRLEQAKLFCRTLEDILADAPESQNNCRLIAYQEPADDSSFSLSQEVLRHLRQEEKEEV
# T2 sequence (Q86WV6 with tags, fused parts or gaps G230A/H232R/R293Q): as the sequence (Q86WV6 with tags, fused parts or gaps H232R) above, with G99A, R162Q counted along it
Compound,"EC50 [1, 5]",IC50 [2],IC50 [3],EC50 [4],"EC50 [1, 6]"
Nc1ncnc2c1ncn2[C@@H]1O[C@@H]2COP(=O)(O)O[C@H]3[C@@H](F)[C@H](n4cnc5c4ncn4ccnc54)O[C@@H]3COP(=O)(O)O[C@H]2[C@H]1F [Example 3],24.4 µM,0.04 µM,0.02 µM,5.76 µM,
"NC(=O)c1cccc2c1nnn2[C@@H]1O[C@@H]2COP(=O)(O)O[C@H]3[C@@H](F)[C@H](n4cnc5c(N)ncnc54)O[C@@H]3COP(=O)(O)O[C@H]2[C@H]1F [Example 7, 1-[(1R,6R,8R,9R,10R,15R,17R,18R)-17-(6-amino-9H-purin-9-yl)-9,18-difluoro-3,12-dihydroxy-3,12-dioxo-2,4,7,11,13,16-hexaoxa-3λ^5,12λ^5-diphosphatricyclo[13.3.0.0^6,10]octadecan-8-yl]-1H-1,2,3-benzotriazole-4-carboxamide]",,11.9 µM,0.31 µM,> 100 µM,> 100 µM
NC(=O)c1cccc2c1nnn2[C@@H]1O[C@@H]2COP(=O)(O)O[C@H]3[C@@H](F)[C@H](n4cnc5c4ncn4ccnc54)O[C@@H]3COP(=O)(O)O[C@H]2[C@H]1F [Example 9],,84.1 µM,0.42 µM,> 100 µM,> 100 µM
"NC(=O)c1cc([C@@H]2O[C@@H]3COP(=O)(O)O[C@H]4[C@@H](F)[C@H](n5cnc6c(N)ncnc65)O[C@@H]4COP(=O)(S)O[C@H]3[C@H]2O)ccn1 (stereo partly drawn) [Example 14, 4-[(1R,6R,8S,9S,10S,15R,17R,18R)-17-(6-amino-9H-purin-9-yl)-18-fluoro-3,9-dihydroxy-3,12-dioxo-12-sulfanyl-2,4,7,11,13,16-hexaoxa-3λ^5,12λ^5-diphosphatricyclo[13.3.0.0^6,10]octadecan-8-yl]pyridine-2-carboxamide]",> 100 µM,> 100 µM,1.14 µM,> 100 µM,
"Nc1nc2c(ncn2[C@@H]2O[C@@H]3COP(=O)(O)O[C@H]4[C@@H](O)[C@H](n5cnc6c(N)ncnc65)O[C@@H]4COP(=O)(S)O[C@H]3[C@H]2O)c(=O)[nH]1 (stereo partly drawn) [Example 15, (1S,8R,9R,10S,15R,17R,18R)-8-(2-amino-6-oxo-6,9-dihydro-1H-purin-9-yl)-17-(6-amino-9H-purin-9-yl)-3,9,18-trihydroxy-12-sulfanyl-2,4,7,11,13,16-hexaoxa-3λ^5,12λ^5-diphosphatricyclo[13.3.0.0^6,10]octadecane-3,12-dione]",> 100 µM,9.55 µM,0.83 µM,> 100 µM,
Nc1nc2c(ncn2[C@@H]2O[C@@H]3COP(=O)(O)O[C@H]4[C@@H](O)[C@H](n5cnc6c5ncn5ccnc65)O[C@@H]4COP(=O)(S)O[C@H]3[C@H]2O)c(=O)[nH]1 (stereo partly drawn) [Example 16],> 100 µM,96 µM,5.65 µM,> 100 µM,
O=c1[nH]cnc2c1ncn2[C@@H]1O[C@@H]2COP(=O)(O)O[C@H]3[C@@H](O)[C@H](n4cnc5c4ncn4ccnc54)O[C@@H]3COP(=O)(O)O[C@H]2[C@H]1O [Example 18],> 100 µM,25.3 µM,0.49 µM,> 100 µM,
O=P1(O)OC[C@H]2O[C@@H](n3cnc4c3ncn3ccnc43)[C@H](O)[C@@H]2OP(=O)(O)OC[C@H]2O[C@@H](n3cnc4c3ncn3ccnc43)[C@H](O)[C@@H]2O1 [Example 19],> 100 µM,28.6 µM,0.65 µM,> 100 µM,
Nc1ncnc2c1ncn2[C@@H]1O[C@@H]2COP(=O)(O)O[C@H]3[C@@H](F)[C@H](n4cnc5c4ncn4ccnc54)O[C@@H]3COP(=O)(O)O[C@H]2[C@H]1O [Example 20],,0.04 µM,0.01 µM,3.71 µM,13.6 µM
